Source: the supplement of paper PMC11061612

Key:
[1] = test system: OCUB-M (Breast Carcinoma); experiment: Bliss excess, mean over the matrix (fraction); higher = more synergy
Summary of the method: (§1)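 After 24 hours at 37°C and 5% CO2 in 1536-well plates, cells in DMEM/F12 or RPMI plus 10% FBS received two-drug dose matrices for 72 hours. Viability came from CellTiter-Glo 2.0 luminescence and was scaled as inhibition, anchored at 0 by vehicle wells and at 1 by blank wells. Combination Emax is taken as the second-highest inhibition in the matrix, and Bliss excess as the observed combination effect less EA + EB − EA·EB, with EA and EB the single-agent effects.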

[2] = test system: KINGS-1 (Low Grade Glioma); experiment: as above
Summary of the method: as §1

[3] = test system: LC4-1 (B-Lymphoblastic Leukemia); experiment: as above
Summary of the method: as §1

[4] = test system: NCI-N87 (Gastric Carcinoma); experiment: as above
Summary of the method: as §1

[5] = test system: HSC-2 (Oral Cavity Carcinoma); experiment: as above
Summary of the method: as §1

GI-1 (Glioblastoma) [6] = experiment: as above
Summary of the method: as §1

[7] = test system: VMRC-LCD (Lung Adenocarcinoma); experiment: as above
Summary of the method: as §1

[8] = test system: JHH-7 (Hepatocellular Carcinoma); experiment: as above
Summary of the method: as §1

[9] = test system: SNU-C1 (Colorectal Carcinoma); experiment: as above
Summary of the method: as §1

EW-3 (Ewing's Sarcoma) [10] = experiment: as above
Summary of the method: as §1

[11] = test system: SCC-9 (Oral Cavity Carcinoma); experiment: as above
Summary of the method: as §1

[12] = test system: OCUM-1 (Gastric Carcinoma); experiment: as above
Summary of the method: as §1

[13] = test system: H-EMC-SS (Chondrosarcoma); experiment: as above
Summary of the method: as §1

NB7 (Neuroblastoma) [14] = experiment: as above
Summary of the method: as §1

[15] = test system: TGBC11TKB (Gastric Carcinoma); experiment: as above
Summary of the method: as §1

[16] = test system: OCUB-M (Breast Carcinoma); experiment: combination Emax (second highest fraction inhibited in the dose matrix, 72 h); higher = more inhibition; extreme values may be limits of the assay
Summary of the method: as §1

[17] = test system: KINGS-1 (Low Grade Glioma); experiment: as above
Summary of the method: as §1

[18] = test system: LC4-1 (B-Lymphoblastic Leukemia); experiment: as above
Summary of the method: as §1

[19] = test system: NCI-N87 (Gastric Carcinoma); experiment: as above
Summary of the method: as §1

[20] = test system: HSC-2 (Oral Cavity Carcinoma); experiment: as above
Summary of the method: as §1

GI-1 (Glioblastoma) [21] = experiment: as above
Summary of the method: as §1

[22] = test system: VMRC-LCD (Lung Adenocarcinoma); experiment: as above
Summary of the method: as §1

[23] = test system: JHH-7 (Hepatocellular Carcinoma); experiment: as above
Summary of the method: as §1

[24] = test system: SNU-C1 (Colorectal Carcinoma); experiment: as above
Summary of the method: as §1

EW-3 (Ewing's Sarcoma) [25] = experiment: as above
Summary of the method: as §1

[26] = test system: SCC-9 (Oral Cavity Carcinoma); experiment: as above
Summary of the method: as §1

[27] = test system: OCUM-1 (Gastric Carcinoma); experiment: as above
Summary of the method: as §1

[28] = test system: H-EMC-SS (Chondrosarcoma); experiment: as above
Summary of the method: as §1

NB7 (Neuroblastoma) [29] = experiment: as above
Summary of the method: as §1

[30] = test system: TGBC11TKB (Gastric Carcinoma); experiment: as above
Summary of the method: as §1
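For Bliss excess, mean over the matrix in this document: after 72 h of two-drug dosing.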

SMILES	Bliss excess [1]	Bliss excess [2]	Bliss excess [3]	Bliss excess [4]	Bliss excess [5]	Bliss excess (GI-1 (Glioblastoma) [6])	Bliss excess [7]	Bliss excess [8]	Bliss excess [9]	Bliss excess (EW-3 (Ewing's Sarcoma) [10])	Bliss excess [11]	Bliss excess [12]	Bliss excess [13]	Bliss excess (NB7 (Neuroblastoma) [14])	Bliss excess [15]	combination Emax [16]	combination Emax [17]	combination Emax [18]	combination Emax [19]	combination Emax [20]	combination Emax (GI-1 (Glioblastoma) [21])	combination Emax [22]	combination Emax [23]	combination Emax [24]	combination Emax (EW-3 (Ewing's Sarcoma) [25])	combination Emax [26]	combination Emax [27]	combination Emax [28]	combination Emax (NB7 (Neuroblastoma) [29])	combination Emax [30]
C[C@@H](Nc1cc(F)cc(F)c1)c1cc(C(=O)N(C)C)cc2c(=O)cc(N3CCOCC3)oc12 [AZD8186] + CC(=O)c1c(C)c2cnc(Nc3ccc(N4CCNCC4)cn3)nc2n(C2CCCC2)c1=O [Palbociclib] (first compound max 10 µM, 7x7, partner max 10 µM)	-0.0466	0.0318	0.202	0.0255	0.0014	0.0438	0.006	-0.0086	0.0065	0.0752	0.0322	0.0111	-0.0127	0.211	0.0002	0.252	0.398	0.641	0.656	0.533	0.454	0.165	0.216	0.37	0.392	0.382	0.36	0.474	0.932	0.178
Cc1nc(-c2cn3c(n2)-c2ccc(-c4cnn(C(C)(C)C(N)=O)c4)cc2OCC3)n(C(C)C)n1 [Taselisib] + O=C(Nc1ccc2[nH]nc(-c3ccncc3)c2c1)[C@@H]1CCN(CC(=O)N2CCN(c3ccc(-c4ncccn4)cc3)CC2)C1 [SCH772984] (first compound max 10 µM, 7x7, partner max 5 µM)	0.0341	0.139	0.0661	0.0215	0.0341	0.111	-0.0342	0.0389	0.108	0.0884	0.151	0.016	0.156	-0.0014	0.177	1	0.749	0.588	0.947	0.994	0.732	0.149	0.526	0.932	0.608	0.959	0.983	0.927	0.264	0.765
CC1(C)CCC(CN2CCN(c3ccc(C(=O)NS(=O)(=O)c4ccc(NCC5CCOCC5)c([N+](=O)[O-])c4)c(Oc4cnc5[nH]ccc5c4)c3)CC2)=C(c2ccc(Cl)cc2)C1 [Venetoclax] + CS(=O)(=O)CCNCc1ccc(-c2ccc3ncnc(Nc4ccc(OCc5cccc(F)c5)c(Cl)c4)c3c2)o1 [Lapatinib] (first compound max 1 µM, 7x7, partner max 10 µM)	-0.0181	-0.0466	0.0233	-0.0029	-0.0145	0.0283	-0.0139	-0.0408	-0.0495	0.0862	-0.036	-0.0196	-0.0278	-0.0348	0.0197	0.518	0.208	1	0.931	0.8	0.284	0.256	0.335	0.0031	0.55	0.955	0.178	0.188	0.117	0.325
O=C(c1cc(Cc2n[nH]c(=O)c3ccccc23)ccc1F)N1CCN(C(=O)C2CC2)CC1 [Olaparib] + CC1(C)CCC(CN2CCN(c3ccc(C(=O)NS(=O)(=O)c4ccc(NCC5CCOCC5)c([N+](=O)[O-])c4)c(Oc4cnc5[nH]ccc5c4)c3)CC2)=C(c2ccc(Cl)cc2)C1 [Venetoclax] (first compound max 10 µM, 7x7, partner max 1 µM)	-0.0483	-0.0359	0.0096	-0.0552	-0.0219	0.0518	-0.0266	-0.032	-0.0425	0.0351	-0.047	-0.0472	-0.0572	-0.0285	-0.0224	0.17	0.131	1	0.121	0.115	0.265	0.151	0.173	0.0848	0.887	0.0718	0.172	0.119	0.301	0.183
C[C@@H](Oc1cc(-c2cnn(C3CCNCC3)c2)cnc1N)c1c(Cl)ccc(F)c1Cl [Crizotinib] + Cn1cnc2c(F)c(Nc3ccc(Br)cc3Cl)c(C(=O)NOCCO)cc21 [Selumetinib] (first compound max 10 µM, 7x7, partner max 10 µM)	0.0034	0.0342	-0.0198	-0.0764	-0.0618	-0.0355	-0.0474	-0.0152	0.0325	-0.134	0.0117	0.0251	-0.0166	-0.0033	0.0524	0.458	0.799	0.896	0.383	0.551	0.602	0.665	0.56	0.892	0.525	0.919	0.936	0.405	0.443	0.557
CN(CCO)CC[C@H](CSc1ccccc1)Nc1ccc(S(=O)(=O)NC(=O)c2ccc(N3CCC([C@@H](O)c4ccccc4-c4ccc(Cl)cc4)CC3)cc2)cc1S(=O)(=O)C(F)(F)F [AZD4320] + CC(=O)O[C@H]1C(=O)[C@@]2(C)[C@H]([C@H](OC(=O)c3ccccc3)[C@]3(O)C[C@H](OC(=O)[C@H](O)[C@@H](NC(=O)c4ccccc4)c4ccccc4)C(C)=C1C3(C)C)[C@]1(OC(C)=O)CO[C@@H]1C[C@@H]2O [Paclitaxel] (first compound max 1 µM, 7x7, partner max 3 µM)	0.0811	0.18	0.0047	0.182	0.0087	0.0374	0.0035	0.144	0.179	0.0269	0.109	0.0074	0.0785	0.131	0.0373	1	0.966	1	0.921	1	1	0.918	0.951	0.829	0.961	0.745	0.955	0.672	0.94	0.994
C[C@@H]1COCCN1c1cc(C2([S@](C)(=N)=O)CC2)nc(-c2ccnc3[nH]ccc23)n1 [AZD6738] + Nc1ccn([C@@H]2O[C@H](CO)[C@@H](O)C2(F)F)c(=O)n1 [Gemcitabine] (first compound max 10 µM, 7x7, partner max 0.3 µM)	0.028	-0.023	0.0935	0.0265	0.0604	0.0797	0.0526	0.085	-0.0261	-0.0176	0.024	-0.0316	0.006	0.0831	-0.0137	0.947	0.388	0.988	0.738	0.971	0.933	0.74	0.722	0.721	0.939	0.47	0.727	0.545	0.903	0.936
